Assays:
Test in all cases: relative viability (nuclei count vs DMSO), 5 days (fraction); higher = more cells survive
Tozasertib + Palbociclib = compound: Cc1cc(Nc2cc(N3CCN(C)CC3)nc(Sc3ccc(NC(=O)C4CC4)cc3)n2)n[nH]1 [Tozasertib] + CC(=O)c1c(C)c2cnc(Nc3ccc(N4CCNCC4)cn3)nc2n(C2CCCC2)c1=O [Palbociclib] (partner 0.5 µM)
Method in brief: (§1)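 Nuclei were stained with Hoechst during a one-step fixation (final 0.05% Triton X-100, 1% formaldehyde, 1 ug/ml Hoechst) carried out 5 days after dosing, then counted on 4× images. The cells, lung cancer lines in 1536-well plates, had been dosed by pin tool the day after seeding with one drug alone or a fixed anchor-drug dose plus five library-drug doses (not always all listed) in √10 steps. Relative viability is the nuclei count in treated wells divided by that in vehicle wells, and each value is the median of duplicate plates.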

Tozasertib + Bortezomib = compound: Cc1cc(Nc2cc(N3CCN(C)CC3)nc(Sc3ccc(NC(=O)C4CC4)cc3)n2)n[nH]1 [Tozasertib] + CC(C)C[C@H](NC(=O)[C@H](Cc1ccccc1)NC(=O)c1cnccn1)B(O)O [Bortezomib] (partner 0.002 µM)
Method in brief: as §1

Tozasertib + Foretinib = compound: Cc1cc(Nc2cc(N3CCN(C)CC3)nc(Sc3ccc(NC(=O)C4CC4)cc3)n2)n[nH]1 [Tozasertib] + COc1cc2c(Oc3ccc(NC(=O)C4(C(=O)Nc5ccc(F)cc5)CC4)cc3F)ccnc2cc1OCCCN1CCOCC1 [Foretinib] (partner 0.25 µM)
Method in brief: as §1

Tozasertib + Pictilisib = compound: Cc1cc(Nc2cc(N3CCN(C)CC3)nc(Sc3ccc(NC(=O)C4CC4)cc3)n2)n[nH]1 [Tozasertib] + CS(=O)(=O)N1CCN(Cc2cc3nc(-c4cccc5[nH]ncc45)nc(N4CCOCC4)c3s2)CC1 [Pictilisib] (partner 1 µM)
Method in brief: as §1

Tozasertib + Phenformin = compound: Cc1cc(Nc2cc(N3CCN(C)CC3)nc(Sc3ccc(NC(=O)C4CC4)cc3)n2)n[nH]1 [Tozasertib] + N=C(N)NC(=N)NCCc1ccccc1 [Phenformin] (partner 250 µM)
Method in brief: as §1

Cell Line | relative viability (Tozasertib + Palbociclib; first compound 0.004 µM) | relative viability (Tozasertib + Palbociclib; first compound 0.01265 µM) | relative viability (Tozasertib + Palbociclib; first compound 0.04 µM) | relative viability (Tozasertib + Palbociclib; first compound 0.1265 µM) | relative viability (Tozasertib + Bortezomib; first compound 0.004 µM) | relative viability (Tozasertib + Bortezomib; first compound 0.01265 µM) | relative viability (Tozasertib + Bortezomib; first compound 0.04 µM) | relative viability (Tozasertib + Bortezomib; first compound 0.1265 µM) | relative viability (Tozasertib + Foretinib; first compound 0.004 µM) | relative viability (Tozasertib + Foretinib; first compound 0.01265 µM) | relative viability (Tozasertib + Foretinib; first compound 0.04 µM) | relative viability (Tozasertib + Pictilisib; first compound 0.004 µM) | relative viability (Tozasertib + Pictilisib; first compound 0.01265 µM) | relative viability (Tozasertib + Pictilisib; first compound 0.04 µM) | relative viability (Tozasertib + Pictilisib; first compound 0.1265 µM) | relative viability (Tozasertib + Phenformin; first compound 0.004 µM) | relative viability (Tozasertib + Phenformin; first compound 0.01265 µM) | relative viability (Tozasertib + Phenformin; first compound 0.04 µM) | relative viability (Tozasertib + Phenformin; first compound 0.1265 µM) | relative viability (Tozasertib + Foretinib; first compound 0.1265 µM)
RERF-LC-KJ | 1.14 | 0.973 | 1.01 | 0.969 | 0.983 | 1.11 | 1.12 | 0.96 | 0.795 | 0.831 | 0.957 | 0.503 | 0.594 | 0.597 | 0.456 | 0.443 | 0.425 | 0.485 | 0.435 | 
NCI-H650 | 0.362 | 0.288 | 0.317 | 0.313 | 0.663 | 0.68 | 0.976 | 0.523 | 1.14 |  | 1.02 | 0.917 | 0.813 | 0.823 | 0.756 | 0.497 | 0.445 | 0.444 | 0.379 | 0.879
NCI-H441 | 0.222 | 0.186 | 0.213 | 0.203 | 0.424 | 0.298 | 0.379 | 0.213 | 1.05 | 0.914 | 0.895 | 0.431 | 0.447 | 0.477 | 0.304 | 0.955 | 0.852 | 0.937 | 0.768 | 0.887
COR-L23 | 0.309 | 0.297 | 0.274 | 0.161 | 0.986 | 0.889 | 0.888 | 0.864 | 0.998 | 0.847 | 0.783 | 0.724 | 0.756 | 0.783 | 0.397 | 0.44 | 0.425 | 0.407 | 0.176 | 0.523
NCI-H1437 | 0.327 | 0.267 | 0.316 | 0.19 | 0.757 | 0.509 | 0.55 | 0.31 | 1.22 | 1.25 | 1.2 | 0.479 | 0.385 | 0.448 | 0.318 | 0.312 | 0.301 | 0.297 | 0.2 | 1.19
NCI-H23 | 0.58 | 0.518 | 0.498 | 0.313 | 1.06 | 1.24 | 1.11 | 0.424 | 1.02 | 0.887 | 0.848 | 0.566 | 0.555 | 0.541 | 0.337 | 0.76 |  | 0.85 | 0.745 | 0.331
